{"source": "patent US20260200928A1", "about": "“THERAPEUTIC COMPOUNDS” (Sanofi, priority 2022, published 2026)", "target": "T1, human IL-17A (Homo sapiens, UniProt Q16552)", "T1 construct": "purchased R&D Systems 7955-IL/CF", "T1 sequence (Q16552 24-155)": "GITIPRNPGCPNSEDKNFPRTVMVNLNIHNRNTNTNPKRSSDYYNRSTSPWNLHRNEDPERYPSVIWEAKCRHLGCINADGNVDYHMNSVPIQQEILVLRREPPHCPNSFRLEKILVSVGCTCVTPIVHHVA", "assay": "IL-17A AlphaLISA competition assay (block of IL-17A binding to its receptor IL-17RA)", "details": "mean IC50 (n≥2), block of IL-17A binding to IL-17RA", "in_short": "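Bead-based AlphaLISA competition in PBS with 0.05% Tween-20 and 0.1% BSA: compound first meets human IL-17A (7.5 nM stock) for 30 min, then IL-17RA/Fc (5 nM stock) for 90 min, all at room temperature, before acceptor/donor bead capture. IC50 fitted 4-parameter, DMSO and 4 μM reference inhibitor as controls; at least duplicate.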", "data": [{"smiles": "COCC(c1ccnc(NC(=O)[C@@H](NC(=O)c2nonc2C)[C@H]2CC[C@H](C)CC2)c1)N1C[C@@H](C(F)(F)F)NC1=O", "note": "(single isomer, unassigned) [Example 75]", "values": [{"measurement": "IC50", "value": 134, "unit": "nM"}]}, {"smiles": "C[C@@H](OC(C)(C)C)[C@@H](NC(=O)OCc1ccccc1)C(=O)Nc1cc(CN2C[C@@H](C(F)(F)F)NC2=O)ccn1", "note": "[Example 100, Benzyl ((2R,3R)-3-(tert-butoxy)-1-oxo-1-((4-(((S)-2-oxo-4-(trifluoromethyl)imidazolidin-1-yl)methyl)pyridin-2-yl)amino)butan-2-yl)carbamate]", "values": [{"measurement": "IC50", "value": 17400, "unit": "nM"}]}, {"smiles": "CCc1conc1C(=O)NC(C(=O)Nc1cc([C@@H](C(C)C)N2C[C@@H](C(F)(F)F)NC2=O)ccn1)C1CCC(F)(F)CC1", "note": "(stereo in doubt) [Example 159, N—((S)-1-(4,4-difluorocyclohexyl)-2-((4-((R)-2-methyl-1-((S)-2-oxo-4-(trifluoromethyl)imidazolidin-1-yl)propyl)pyridin-2-yl)amino)-2-oxoethyl)-4-ethylisoxazole-3-carboxamide]", "values": [{"measurement": "IC50", "value": 30, "unit": "nM"}]}, {"smiles": "COCC(c1ccnc(NC(=O)[C@@H](NC(=O)c2nonc2C2CC2)C2CCC(F)(F)CC2)c1)[C@H]1C[C@@H](C(F)(F)F)NC1=O", "note": "(single isomer, unassigned) [Example 186, 4-Cyclopropyl-N-((1S)-1-(4,4-difluorocyclohexyl)-2-((4-((R or S)-2-methoxy-1-((3R,5S)-2-oxo-5-(trifluoromethyl)pyrrolidin-3-yl)ethyl)pyridin-2-yl)amino)-2-oxoethyl)-1,2,5-oxadiazole-3-carboxamide]", "values": [{"measurement": "IC50", "value": 69, "unit": "nM"}]}, {"smiles": "COCC(c1ccnc(NC(=O)C(NC(=O)C(F)(F)c2cccc(Cl)c2)C2CCC(C)CC2)c1)N1CC(C(F)(F)F)NC1=O", "note": "(single isomer, unassigned) [Example 249]", "values": [{"measurement": "IC50", "value": 49, "unit": "nM"}]}, {"smiles": "CCn1nccc1C(=O)N[C@@H](COC(C)(C)C(F)(F)F)C(=O)Nc1cc([C@@H](COC)N2C[C@@H](C(F)(F)F)NC2=O)ccn1", "note": "[Example 270, 1-ethyl-N-((S)-1-((4-((S)-2-methoxy-1-((S)-2-oxo-4-(trifluoromethyl)imidazolidin-1-yl)ethyl)pyridin-2-yl)amino)-1-oxo-3-((1,1,1-trifluoro-2-methylpropan-2-yl)oxy)propan-2-yl)-1H-pyrazole-5-carboxamide]", "values": [{"measurement": "IC50", "value": 29, "unit": "nM"}]}, {"smiles": "COC[C@H](c1ccnc(NC(=O)[C@@H](NC(=O)c2ccnn2C)C2CCC(C(F)(F)F)CC2)c1)N1C[C@@H](C(F)(F)F)NC1=O", "note": "(stereo partly drawn) [Example 302, N-((1S)-2-((4-((S)-2-methoxy-1-((S)-2-oxo-4-(trifluoromethyl)imidazolidin-1-yl)ethyl)pyridin-2-yl)amino)-2-oxo-1-(4-(trifluoromethyl)-cyclohexyl)ethyl)-1-methyl-1H-pyrazole-5-carboxamide]", "values": [{"measurement": "IC50", "value": 44, "unit": "nM"}]}, {"smiles": "Cc1nonc1C(=O)N[C@H](C(=O)Nc1cc(C(C)N2C[C@@H](C(F)(F)F)NC2=O)ccn1)C1CCC(F)(F)CC1", "note": "(single isomer, unassigned) [Example 169, N-((1S)-1-(4,4-Difluorocyclohexyl)-2-oxo-2-((4-(R or S)-(1-((S)-2-oxo-4-(trifluoromethyl)imidazolidin-1-yl)ethyl)pyridin-2-yl)amino)ethyl)-4-methyl-1,2,5-oxadiazole-3-carboxamide]", "values": [{"measurement": "IC50", "value": 79, "unit": "nM"}]}, {"smiles": "Cn1nccc1C(=O)NC(C(=O)Nc1cc(C(NC(=O)CCC(F)(F)F)C2CC2)ccn1)C1CCC(F)(F)CC1", "note": "(stereo not shown) [Example 47, N-(2-((4-(cyclopropyl(4,4,4-trifluorobutanamido)methyl)pyridin-2-yl)amino)-1-(4,4-difluorocyclohexyl)-2-oxoethyl)-1-methyl-1H-pyrazole-5-carboxamide]", "values": [{"measurement": "IC50", "value": 630, "unit": "nM"}]}, {"smiles": "O=C(N[C@H](C(=O)Nc1cc(CN2C[C@@H](C(F)(F)F)NC2=O)ccn1)C1CCC(F)(F)CC1)c1conc1C1CC1", "note": "[Example 20, 3-cyclopropyl-N-((S)-1-(4,4-difluorocyclohexyl)-2-oxo-2-((4-(((S)-2-oxo-4-(trifluoromethyl)-imidazolidin-1-yl)methyl)-pyridin-2-yl)amino)ethyl)-isoxazole-4-carboxamide]", "values": [{"measurement": "IC50", "value": 183, "unit": "nM"}]}, {"smiles": "COCC(c1ccnc(NC(=O)[C@@H](NC(=O)Cc2cc(C)no2)[C@H]2CC[C@H](C)CC2)c1)N1C[C@@H](C(F)(F)F)NC1=O", "note": "(single isomer, unassigned) [Example 123]", "values": [{"measurement": "IC50", "value": 65, "unit": "nM"}]}, {"smiles": "COC[C@H](c1ccnc(NC(=O)[C@@H](NC(=O)Cc2ccc(OC)nc2)C2CCC(F)(F)CC2)c1)N1C[C@@H](C(F)(F)F)NC1=O", "note": "[Example 204, (S)-2-(4,4-difluorocyclohexyl)-N-(4-((S)-2-methoxy-1-((S)-2-oxo-4-(trifluoromethyl)imidazolidin-1-yl)ethyl)pyridin-2-yl)-2-(2-(6-methoxypyridin-3-yl)acetamido)acetamide]", "values": [{"measurement": "IC50", "value": 129, "unit": "nM"}]}, {"smiles": "COC[C@H](c1ccnc(NC(=O)C(NC(=O)c2nonc2OCC(F)(F)F)C2CCC(F)CC2)c1)N1C[C@@H](C(F)(F)F)NC1=O", "note": "(single isomer, unassigned) [Example 282]", "values": [{"measurement": "IC50", "value": 103, "unit": "nM"}]}, {"smiles": "CCc1nocc1C(=O)N[C@H](C(=O)Nc1cc([C@@H](COC)N2C[C@@H](C(F)(F)F)NC2=O)ccn1)C1CCC(C(F)(F)F)CC1", "note": "(stereo partly drawn) [Example 300, 3-ethyl-N-((1S)-2-((4-((S)-2-methoxy-1-((S)-2-oxo-4-(trifluoromethyl)-imidazolidin-1-yl)ethyl)pyridin-2-yl)amino)-2-oxo-1-(4-(trifluoromethyl)-cyclohexyl)ethyl)isoxazole-4-carboxamide]", "values": [{"measurement": "IC50", "value": 39, "unit": "nM"}]}, {"smiles": "COCC(c1ccnc(NC(=O)[C@@H](NC(=O)c2nonc2C2CC2)[C@H]2CC[C@H](C)CC2)c1)N1C[C@@H](C(F)(F)F)NC1=O", "note": "(single isomer, unassigned) [Example 58]", "values": [{"measurement": "IC50", "value": 11, "unit": "nM"}]}, {"smiles": "C[C@@H](OC(C)(C)C)[C@H](NC(=O)c1nonc1C1CC1)C(=O)Nc1cc(CN2C[C@@H](C(F)(F)F)NC2=O)ccn1", "note": "[Example 102, N-((2S,3R)-3-(tert-butoxy)-1-oxo-1-((4-(((S)-2-oxo-4-(trifluoromethyl)-imidazolidin-1-yl)methyl)pyridin-2-yl)amino)butan-2-yl)-4-cyclopropyl-1,2,5-oxadiazole-3-carboxamide]", "values": [{"measurement": "IC50", "value": 356, "unit": "nM"}]}, {"smiles": "COC[C@H](c1ccnc(NC(=O)C(NC(=O)c2nocc2C)C2CCC(F)CC2)c1)N1C[C@@H](C(F)(F)F)NC1=O", "note": "(single isomer, unassigned) [Example 284]", "values": [{"measurement": "IC50", "value": 62, "unit": "nM"}]}, {"smiles": "CC(C)n1ccnc1C(=O)N[C@H](C(=O)Nc1cc(C(NC(=O)CCC(F)(F)F)C2CC2)ccn1)C1CCC(F)(F)CC1", "note": "(stereo partly drawn) [Example 117, N-((1S)-2-((4-(cyclopropyl(4,4,4-trifluorobutanamido)methyl)pyridin-2-yl)amino)-1-(4,4-difluorocyclohexyl)-2-oxoethyl)-1-isopropyl-1H-imidazole-2-carboxamide]", "values": [{"measurement": "IC50", "value": 723, "unit": "nM"}]}, {"smiles": "Cc1nonc1C(=O)NC(C(=O)Nc1cc(CN2CC(C(F)(F)F)NC2=O)ccn1)C1CCC(F)CC1", "note": "[Example 291, N-((S)-1-((1r,4S)-4-fluorocyclohexyl)-2-oxo-2-((4-(((S)-2-oxo-4-(trifluoromethyl)imidazolidin-1-yl)methyl)pyridin-2-yl)amino)ethyl)-4-methyl-1,2,5-oxadiazole-3-carboxamide]", "values": [{"measurement": "IC50", "value": 619, "unit": "nM"}]}, {"smiles": "CC[C@H](c1ccnc(NC(=O)[C@@H](NC(=O)c2ccnn2C)C2CCC(F)(F)CC2)c1)N1C[C@@H](C(F)(F)F)NC1=O", "note": "[Example 214, N-((S)-1-(4,4-difluorocyclohexyl)-2-oxo-2-((4-((R)-1-((S)-2-oxo-4-(trifluoromethyl)imidazolidin-1-yl)propyl)pyridin-2-yl)amino)ethyl)-1-methyl-1H-pyrazole-5-carboxamide]", "values": [{"measurement": "IC50", "value": 46, "unit": "nM"}]}, {"smiles": "Cc1nonc1C(=O)N[C@@H](COC(C)(C)C(F)(F)F)C(=O)Nc1cc(CN2C[C@@H](C(F)(F)F)NC2=O)ccn1", "note": "[Example 273, 4-methyl-N—((S)-1-oxo-1-((4-(((S)-2-oxo-4-(trifluoromethyl)-imidazolidin-1-yl)methyl)pyridin-2-yl)amino)-3-((1,1,1-trifluoro-2-methylpropan-2-yl)oxy)propan-2-yl)-1,2,5-oxadiazole-3-carboxamide]", "values": [{"measurement": "IC50", "value": 403, "unit": "nM"}]}, {"smiles": "CCc1nonc1C(=O)NC(C(=O)Nc1cc(C(CC)NC(=O)CCC(F)(F)F)ccn1)C1CCC(F)(F)CC1", "note": "(stereo in doubt) [Example 207, N-((1S)-1-(4,4-difluorocyclohexyl)-2-oxo-2-((4-(1-(4,4,4-trifluorobutan-amido)propyl)pyridin-2-yl)amino)ethyl)-4-ethyl-1,2,5-oxadiazole-3-carboxamide]", "values": [{"measurement": "IC50", "value": 350, "unit": "nM"}]}, {"smiles": "CC(C)n1nccc1C(=O)N[C@H](C(=O)Nc1cc([C@@H](C)NC(=O)CCC(F)(F)F)ccn1)C1CCC(F)(F)CC1", "note": "[Example 167, N—((S)-1-(4,4-difluorocyclohexyl)-2-oxo-2-((4-((R)-1-(4,4,4-trifluoro-butanamido)ethyl)pyridin-2-yl)amino)ethyl)-1-isopropyl-1H-pyrazole-5-carboxamide]", "values": [{"measurement": "IC50", "value": 222, "unit": "nM"}]}, {"smiles": "CC(C)(C)OC(=O)N1CCn2c(ccc2C(=O)N[C@H](C(=O)Nc2cc(CN3C[C@@H](C(F)(F)F)NC3=O)ccn2)C2CCC(F)(F)CC2)C1", "note": "[Example 11, Tert-butyl 6-(((S)-1-(4,4-difluorocyclohexyl)-2-oxo-2-((4-(((S)-2-oxo-4-(trifluoromethyl)imidazolidin-1-yl)methyl)pyridin-2-yl)amino)ethyl)carbamoyl)-3,4-dihydropyrrolo[1,2-a]pyrazine-2(1H)-carboxylate]", "values": [{"measurement": "IC50", "value": 359, "unit": "nM"}]}, {"smiles": "O=C(CCC(F)(F)F)NC(c1ccnc(NC(=O)C(NC(=O)c2nonc2C2CC2)C2CCC(F)(F)CC2)c1)C1CC1", "note": "(stereo not shown) [Example 46, 4-cyclopropyl-N-(2-((4-(cyclopropyl(4,4,4-trifluorobutan-amido)methyl)pyridin-2-yl)amino)-1-(4,4-difluorocyclohexyl)-2-oxoethyl)-1,2,5-oxadiazole-3-carboxamide]", "values": [{"measurement": "IC50", "value": 612, "unit": "nM"}]}]}
